Assay results as given in US12251434B2 (priority 2021, dated 2025).

Test system: hyaluronic acid
Type: cell-based

4-Methylumbelliferone [4-MU]
Hyaluronic acid with 4-MU, HIS-SARS-CoV-2-3 overexpressed: 30.02 ± 2.00 ng/mL
Hyaluronic acid with 4-MU, HIS-SARS-CoV-2-4 overexpressed: 19.76 ± 11.3 ng/mL
